Measurements reported in PubChem BioAssay (NCI).
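The compound was tested at five concentrations on cells cultured in 96-well plates, with a 48-hour exposure period. GI50 is the concentration that inhibits growth by half. TGI: total growth inhibition.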

Tests used:
Test in all cases: NCI tumour cell line growth inhibition, 48 h
[1] = test system: HCC-2998 colon
[2] = test system: COLO 205 colon
[3] = test system: ACHN renal
[4] = test system: UO-31 renal
[5] = test system: HT29 colon
[6] = test system: CCRF-CEM leukemia
[7] = test system: OVCAR-4 ovarian
[8] = test system: A549 NSCLC
[9] = test system: OVCAR-8 ovarian
[10] = test system: NCI-H460 lung

SMILES	GI50 [1]	TGI [1]	GI50 [2]	TGI [2]	GI50 [3]	TGI [3]	GI50 [4]	TGI [4]	GI50 [5]	TGI [5]	GI50 [6]	TGI [6]	GI50 [7]	TGI [7]	GI50 [8]	TGI [8]	GI50 [9]	TGI [9]	GI50 [10]	TGI [10]
Cc1cccc(CN(C)c2ccc(CO)c(Cl)c2)c1	15.9 µM	52.9 µM	4.86 µM	17.7 µM	32.7 µM	> 100 µM	11.9 µM	64.3 µM	11.9 µM	> 55.3 µM	27 µM	> 100 µM	2.61 µM	25.3 µM	4.58 µM	34.4 µM	16.1 µM	> 79.5 µM	2040 nM	15.8 µM
O=C(CCc1nnc2s/c(=C\c3ccccc3)c(=O)n12)Nc1cc(Cl)ccc1Cl	–	> 100 µM	–	> 100 µM	–	> 100 µM	–	> 100 µM	–	> 100 µM	–	> 100 µM	–	> 100 µM	–	> 100 µM	–	> 100 µM	–	> 100 µM
Fc1ccc(-c2nc(-c3nc4ccc(Cl)cc4[nH]3)cc3c2[nH]c2ccccc23)cc1	5.56 µM	20.2 µM	1.89 µM	4.22 µM	3.06 µM	13.7 µM	2.4 µM	10.7 µM	4.31 µM	12.8 µM	3.37 µM	20.3 µM	4.81 µM	17.2 µM	2.89 µM	12.3 µM	2.88 µM	10.7 µM	2970 nM	10.5 µM
O=C(CC(=O)N1N=C(n2ccc3ccccc32)CC1c1ccccc1)Nc1cccc(Cl)c1 (stereo not given)	–	> 100 µM	–	> 100 µM	–	> 100 µM	–	> 100 µM	–	> 100 µM	–	> 100 µM	–	> 100 µM	–	> 100 µM	–	> 100 µM	–	> 100 µM
Cc1cc(C)nc(NS(=O)(=O)c2ccc(Nc3c4ccccc4nc4c(C(=O)NCCN(C)C)ccc(Cl)c34)cc2)n1	–	26.7 µM	–	2.64 µM	–	8.97 µM	–	4.62 µM	–	4.8 µM	–	15.7 µM	–	4.8 µM	–	4.19 µM	–	2.69 µM	–	2.7 µM
COc1ccc2c(c1)C(=O)c1c-2n(CCCN=[N+]=[N-])c(=O)c2ccccc12	61.9 µM	> 100 µM	34.6 µM	> 100 µM	28.7 µM	> 100 µM	43.4 µM	> 100 µM	41.4 µM	> 100 µM	10.1 µM	> 100 µM	58.6 µM	> 100 µM	52.2 µM	> 100 µM	73 µM	> 100 µM	4860 nM	> 100 µM
OC(c1ccccc1)(c1ccccc1)c1ccccn1	–	> 100 µM	–	> 100 µM	–	> 100 µM	–	> 100 µM	–	> 100 µM	–	> 100 µM	–	> 100 µM	–	> 100 µM	–	> 100 µM	–	> 100 µM
C/C(=N/O)C1CC=C(S(=O)(=O)c2ccccc2)C1 (stereo not given)	–	> 100 µM	–	> 100 µM	–	> 100 µM	–	> 100 µM	–	> 100 µM	–	> 100 µM	–	> 100 µM	–	> 100 µM	–	> 100 µM	–	> 100 µM
